In patent US6855728B2, “Small-molecule modulators of hepatocyte growth factor / scatter factor activities” (North Shore-Long Island Jewish Health System, priority 2001, dated 2005):
Blank lines part the entries; values can stand above or below the compound they belong to.

Experiments:
[1] = tested on: growth of blood vessels from subcutaneous tissue into Matrigel; assay: In vivo blood vessel ingrowth assay (Matrigel); conditions: mice, Matrigel mixed with compound injected subcutaneously, 10 days
Procedure: Angiogenesis was assayed as growth of blood vessels from subcutaneous tissue into a solid gel of basement membrane containing the test compound. Matrigel in liquid form (0.5 ml) was mixed with a compound of the invention, or basic fibroblast growth factor as a control, and injected into the abdominal subcutaneous tissue of mice as previously described (Kibbey, M. C., Grant, D. S. Auerbach, R. and Kleinman, H. K. [1992] Role of the SIKVAV site of laminin in promotion of angiogenesis and tumor growth: an in vivo Matrigel model. J. Natl. Can. Inst. 84, 1633-38). After 10 days, mice were sacrificed and the Matrigel plugs were removed, fixed, sectioned, stained and examined for ingrowth of blood vessels.

[2] = tested on: HGF/SF induced proliferation of HUVEC; assay: Endothelial cell (HUVEC) proliferation assay in the presence of exogenously-added HGF/SF; format: cell-based, human
Outline: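 Serum-starved HUVECs were treated 24 h at 37°C with compounds at final 1 to 12 microgram/ml in RPMI-1% BSA. Proliferation was read as ³H-thymidine incorporation over 4 to 5 h, counted after NaOH lysis.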

[3] = tested on: VEGF-mediated increase in endothelial cell proliferation; assay: Endothelial cell proliferation assay in the presence of VEGF; format: cell-based; conditions: 1.5 micromolar
Procedure: (§1) Cell proliferation assays Endothelial cells (HUVECs) were seeded in 48 well plates at a density of 10,000 to 20,000 cells per well in the normal growth medium (EGM-2-Clonetics) containing 2% fetal bovine serum, FGF, VEGF, IGF, ascorbic acid, EGF, GA, heparin and hydrocortisone. The cells were grown normally in the growth medium for 24 hr at 37 degrees C. and 5% CO2. The cells were then rinsed with RPMI-1% BSA and starved for 1-2 hrs. The stock solutions of all the compounds were made at a concentration of 10 mg/ml in DMSO and diluted in RPMI-1% BSA at a final concentrations of 1 to 12 microgram/ml. The cells were then washed and treated with the compounds and incubated for another 24 hr at 37 degrees C. Then ^3H thymidine (0.5 microgram/ml in RPMI-BSA) was added to the cells and incubated at 37 degrees C. for 4 to 5 hours. The unincorporated thymidine was removed by washing the cells four times with 1× PBS. Then the cells were lysed with 0.5M NaOH for 30 min and the radioactivity counted in the beta counter.
(§2) In endothelial cell proliferation assays as described above, the effect of the compound 1-(4-chloro-3-methylphenyl)-3-(2,6-dichlorophenyl)-prop-2-en-1-one was evaluated in the presence of HGF/SF, VEGF or FGF for its effects on antagonizing the growth factor-induced stimulation of endothelial cell proliferation.

[4] = tested on: Endothelial cells (HUVECs); assay: Endothelial cell (HUVEC) proliferation assay, 3H thymidine incorporation, compound without added growth factor; format: cell-based, human
Outline: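 HUVECs grown 24 h in EGM-2, starved 1-2 h in RPMI-1% BSA, then exposed 24 h at 37 degrees C to compounds at 1 to 12 microgram/ml without added growth factors. Proliferation read as 3H thymidine incorporation over 4 to 5 h; human iliac artery endothelial cells also used similarly.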

[5] = tested on: DU145 cells; assay: Clonogenic assay; format: cell-based; conditions: clonogenic assay over 7 days
Procedure: The effect of (4-(2-chloro-6-fluorobenzyl)-3,5-dimethyl-1H-pyrazole-1-yl)(3-(2,6-dichlorophenyl)-5-methylisoxazol-4-yl)methanone (FIG. 7) and 1-(4-chloro-3-methylphenyl)-3-(2,6-dichlorophenyl)-prop-2-en-1-one were evaluated in a clonogenic assay over 7 days.

[6] = tested on: FGF-mediated increase in endothelial cell proliferation; assay: Endothelial cell proliferation assay in the presence of FGF; format: cell-based; conditions: 1.5 micromolar
Procedure: as §1, §2

[7] = tested on: mice following removal of the femoral artery; assay: In vivo blood flow improvement assay; conditions: administered to mice for seven days following removal of the femoral artery
[8] = tested on: another cell line; assay: Anti-apoptotic activity assay in another cell line; format: cell-based
Procedure: Anti-apoptotic Activity Assay. The ability of compounds of the present invention to protect cells-from apoptosis was performed using a MTT viability assay with MDCK cells exposed to adriamycin (15 micromolar) to induce apoptosis. HGF/SF was evaluated as a positive control.
In another cell line, 90% protection was afforded by (4-chlorophenyl)[3-(2-(2-thienyl)vinyl)-1H-pyrazol-1-yl]methanone.

[9] = biological target: c-Met receptor (Homo sapiens, UniProt P08581); assay: HUVEC proliferation assay with free c-Met receptor (specificity); format: cell-based
c-Met receptor, sequence (P08581 25-1390): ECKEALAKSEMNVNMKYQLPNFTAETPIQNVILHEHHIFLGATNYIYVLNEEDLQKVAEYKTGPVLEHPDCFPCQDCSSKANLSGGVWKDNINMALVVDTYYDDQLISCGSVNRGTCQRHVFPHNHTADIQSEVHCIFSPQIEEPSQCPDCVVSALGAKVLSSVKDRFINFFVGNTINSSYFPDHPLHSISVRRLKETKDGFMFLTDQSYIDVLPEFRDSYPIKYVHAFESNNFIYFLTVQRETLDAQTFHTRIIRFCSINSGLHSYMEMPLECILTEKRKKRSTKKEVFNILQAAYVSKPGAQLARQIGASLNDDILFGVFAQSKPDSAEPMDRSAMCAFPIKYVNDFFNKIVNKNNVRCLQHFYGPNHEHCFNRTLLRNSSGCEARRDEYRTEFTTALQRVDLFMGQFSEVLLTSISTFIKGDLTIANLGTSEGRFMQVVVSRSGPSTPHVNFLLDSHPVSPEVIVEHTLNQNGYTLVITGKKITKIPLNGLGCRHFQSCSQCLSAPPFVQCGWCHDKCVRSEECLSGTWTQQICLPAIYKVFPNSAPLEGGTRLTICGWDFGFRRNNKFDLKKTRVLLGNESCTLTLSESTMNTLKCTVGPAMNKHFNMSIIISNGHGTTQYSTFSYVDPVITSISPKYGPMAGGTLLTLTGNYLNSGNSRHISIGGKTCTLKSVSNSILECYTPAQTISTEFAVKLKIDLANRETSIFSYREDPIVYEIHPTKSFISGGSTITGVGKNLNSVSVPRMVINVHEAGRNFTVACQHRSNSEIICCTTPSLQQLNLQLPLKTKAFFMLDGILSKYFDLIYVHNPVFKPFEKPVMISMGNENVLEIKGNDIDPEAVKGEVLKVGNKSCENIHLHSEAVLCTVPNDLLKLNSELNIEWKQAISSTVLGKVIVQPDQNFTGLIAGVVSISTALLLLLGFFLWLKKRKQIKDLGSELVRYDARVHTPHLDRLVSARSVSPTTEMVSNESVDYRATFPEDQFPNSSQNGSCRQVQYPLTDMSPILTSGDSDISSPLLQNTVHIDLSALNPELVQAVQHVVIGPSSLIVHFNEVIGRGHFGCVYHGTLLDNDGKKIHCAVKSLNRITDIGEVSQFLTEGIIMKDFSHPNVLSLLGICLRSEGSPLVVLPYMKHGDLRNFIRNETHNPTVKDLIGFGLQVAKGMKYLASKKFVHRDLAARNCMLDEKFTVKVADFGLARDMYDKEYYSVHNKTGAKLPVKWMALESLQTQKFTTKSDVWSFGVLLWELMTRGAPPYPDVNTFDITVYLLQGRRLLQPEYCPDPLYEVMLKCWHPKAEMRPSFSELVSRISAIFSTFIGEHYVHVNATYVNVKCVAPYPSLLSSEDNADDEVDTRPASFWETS
Source text: The following assays were used to evaluate the activity of the various compounds discussed herein. Certain of the compounds and groups thereof express-like activity, i.e., they induce scatter, cell proliferation, inhibit apoptosis, among other activities, and if acting through the c-Met receptor, agonize or stimulate c-Met receptor activity. The specificity for such compounds working through the c-Met receptor may be identified by performing the stimulation assay in the presence of free c-Met receptor. Reduction of a proliferative response in the presence of c-Met indicates such specificity.
Cell proliferation assays Endothelial cells (HUVECs) were seeded in 48 well plates at a density of 10,000 to 20,000 cells per well in the normal growth medium (EGM-2-Clonetics) containing 2% fetal bovine serum, FGF, VEGF, IGF, ascorbic acid, EGF, GA, heparin and hydrocortisone. The cells were grown normally in the growth medium for 24 hr at 37 degrees C. and 5% CO2. The cells were then rinsed with RPMI-1% BSA and starved for 1-2 hrs. […] Then the cells were lysed with 0.5M NaOH for 30 min and the radioactivity counted in the beta counter.
The specificity of the stimulation of endothelial cell growth by the compound as measured by ^3H-thymidine incorporation was tested by pre-incubation of cells with the HGF/SF receptor c-met. […]

[10] = tested on: MDCK cells exposed to adriamycin; assay: Anti-apoptotic activity assay (MTT viability, adriamycin-induced apoptosis); format: cell-based
[11] = tested on: MDCK cells; assay: Scatter assay; format: cell-based; conditions: 6 microgram/ml; microscopic examination
Procedure: Scatter Assay. A standard assay for scatter of MDCK cells was performed. Results were evaluated by microscopic examination.

[12] = tested on: human endometrial cancer cells; assay: Effect on growth of tumor cells; format: cell-based; conditions: 40 micrograms/ml
Procedure: Effect on growth of tumor cells. The activity of the compounds herein to promote or inhibit the growth of tumor cells was evaluated using human endometrial cancer cells.

SMILES: Cc1cc(C(=O)C=Cc2c(Cl)cccc2Cl)ccc1Cl [1-(4-chloro-3-methylphenyl)-3-(2,6-dichlorophenyl)-prop-2-en-1-one]
- ingrowth of blood vessels into Matrigel plug [1]: nearly complete inhibition of blood vessel ingrowth
- effect on HGF/SF-mediated increase in endothelial cell proliferation ([2]; 1.5 micromolar): suppressed
- Inhibition at 6-12 micrograms/ml With ([2]; 6-12 micrograms/ml, with HGF/SF, inhibition of endothelial cell proliferation): 40-80% inhibition
- effect on VEGF-mediated increase in endothelial cell proliferation [3]: suppressed
- Activity at 1 ug/ml concentration Without HGF/SF (result in words) ([4]; 1 ug/ml, without HGF/SF): No effect at 1 ug/ml
- DU145 cell growth [5]: dose responsive inhibition
- effect on FGF-mediated increase in endothelial cell proliferation [6]: suppressed

- inhibition of the compound's stimulation of 3H-thymidine incorporation in the presence of c-Met ([9]; compound 6 microgram/ml plus c-Met receptor 100 microgram/ml): 75%
- compound-induced EC proliferation blocked in the presence of C-met receptor ([9]; compound 12 microgram/ml incubated with C-met receptor 5 microgram/ml for 30 min, then added to cells): 40%
SMILES: O=C(c1ccc(Cl)cc1)n1ccc(C=Cc2cccs2)n1 [(4-chlorophenyl)[3-(2-(2-thienyl)vinyl)-1H-pyrazol-1-yl]methanone]
- blood flow [7]: significant improvement in blood flow
- protection from adriamycin-induced apoptosis [8]: 90%
- protection from adriamycin-induced apoptosis ([10]; MDCK cells): 94%
- cell viability, substance alone ([10]; without adriamycin): unchanged
- stimulation of 3H-thymidine incorporation ([4]; compound by itself, 6 microgram/ml): 84%
- scatter of MDCK cells [11]: caused scattering of MDCK cells similar to that seen with HGF/SF

SMILES: Cc1nn(C(=O)c2c(-c3c(Cl)cccc3Cl)noc2C)c(C)c1Cc1c(Cl)cccc1Cl [[4-(2,6-dichlorobenzyl)-3,5-dimethyl-1H-pyrazol-1-yl][3-(2,6-dichlorophenyl)-5-methylisoxazol-4-yl]methanone]
- blockage of HGF/SF induced proliferation of HUVEC ([2]; 12 micrograms/ml): 40-60%
- effect on HGF/SF-mediated stimulation of HUVEC proliferation (FIG. 5) ([2]; combination of HGF/SF and the compound): significant suppression
- effect on HUVEC proliferation, substance alone (FIG. 5) [4]: no effect
- inhibition at 40 µg/mL [12]: 40 to 50%
